Reference: US20250066377A1, “AMINO CHROMEN-2-ONE MODULATORS OF POLRMT” (Pretzel Therapeutics, Inc., priority 2021, published 2025)

What follows are molecules tested against POLRMT (Homo sapiens (Human), UniProt O00411) (assay: POLRMT homogeneous TR-FRET mitochondrial transcription assay). Conditions: inhibition of POLRMT; TR-FRET detection of 407 bp RNA transcript; 7.5 nM POLRMT, 15 nM TFB2M, 30 nM TFAM, 60 minutes at 37° C.
Type: biochemical
Procedure: The inhibitory activity of the compounds of the present invention against POLRMT were determined by assays based on Bergbrede, T., et al., “An adaptable high-throughput technology enabling the identification of specific transcription modulators,” SLAC Discov., 22, 378-386 (2017).
The ability of some compounds of the present invention to inhibit POLRMT were determined in a homogeneous TR-FRET Assay using high-throughput screening in a 384-well plate format. This method is used to monitor the activity of mitochondrial transcription through measurement of its product, a 407 bp long RNA transcript. Detection of the product is facilitated by hybridization of two DNA-oligonucleotide probes to specific and adjacent sequences within the RNA product sequence. Upon annealing of the probes, two fluorophores are coupled directly to an acceptor nucleotide probe (ATTO647, 5′), or introduced via a coupled streptavidin with a biotinylated donor nucleotide probe (Europium cryptate) that is brought into sufficient proximity to serve as a fluorescence-donor-acceptor pair. Thus, a FRET signal at 665 nm is generated upon excitation at 340 nm.
Proteins used as transcription factors (POLRMT: NP_005026.3, TFAM: NP_003192.1, TFB2M: NP_071761.1) are diluted from their stocks to working concentrations of 1 μM, 20 μM and 4 μM respectively, in a dilution buffer containing 20 mM Tris-HCl (pH 8.0), 200 mM NaCl, 10% (v/v) glycerol, 1 mM Dithiothreitol (DTT), 0.5 mM EDTA.
DNA template is a pUC18 plasmid with the mitochondrial light strand promotor sequence (1-477) cloned between HindIII and BamHI sites. The DNA template is restriction linearized proximal to the promotor 3′-end (pUC-LSP).
The reaction mixture (10 uL) containing 7.5 nM POLRMT, 15 nM of TFB2M, 30 nM of TFAM, 0.5 nM of DNA template and 500 μM nucleotide triphosphate mix (NTPs) in a reaction buffer (containing 10 mM Tris-HCl (pH 7.5), 10 mM MgCl2, 40 mM NaCl, 10 mM DTT, 0.005% (w/v) Tween-20, 160 units/ml Rnase inhibitor and 0.1 mg/mL BSA) are dispensed to compounds in microplates, using a Thermo Multidrop® dispenser, and incubated at 37° C. in a VWR INCU-Line incubator for 60 minutes after mixing. No nucleotide triphosphate mix is added to negative control samples. Microplates with compounds to be tested in the assay are prepared from 10 mM compound stocks in 100% DMSO, equal amounts of DMSO without any compound are added to positive control and negative control samples.
During the incubation, a mix of the detection reagents is prepared in a buffer such that the enzymatic reaction is terminated due to chelating of Mg-ions and increased ionic strength, containing 50 mM Tris-HCl (pH 7.5), 700 mM NaCl, 20 mM EDTA, and 0.01% (w/v) Tween-20. Europium-streptavidin is pre-incubated with a 200-fold molar excess of a random sequence oligonucleotide to block unspecific binding of oligo, for two hours at ambient temperature in the dark. Afterwards, the blocked Europium-streptavidin is kept on ice until use.
At the end of the enzymatic reaction time, 5 μL detection oligo mix in the detection buffer is added, and assay plates are mixed and kept at ambient temperature for one hour, protected from light. The concentration of the Acceptor nucleotide oligo (e.g., ATTO647N-5′-[…]-3′) and Donor nucleotide oligo (e.g., bio-5′-AACACATCTCT(-bio)GCCAAACCCCA-bio-3′) in each assay well is 1 nM, and 3 nM, respectively.
After incubation with oligo mix, 5 μL of pre-blocked Europium-streptavidin reagent is dispensed to each assay well, assay plates are again mixed and kept at ambient temperature for one hour, protected from light.
The generated signal is measured with BMG Pherastar microtiter plate reader with a TRF light unit, using excitation at 340 nm, an integration time of 200 μs, and a delay time of 100 μs, before detection at 620 nm and 665 nm. The ratio of donor- and acceptor-fluorescence is used as a measure of the generated transcript product (i.e. enzymatic activity).

POLRMT, sequence (O00411 42-1230): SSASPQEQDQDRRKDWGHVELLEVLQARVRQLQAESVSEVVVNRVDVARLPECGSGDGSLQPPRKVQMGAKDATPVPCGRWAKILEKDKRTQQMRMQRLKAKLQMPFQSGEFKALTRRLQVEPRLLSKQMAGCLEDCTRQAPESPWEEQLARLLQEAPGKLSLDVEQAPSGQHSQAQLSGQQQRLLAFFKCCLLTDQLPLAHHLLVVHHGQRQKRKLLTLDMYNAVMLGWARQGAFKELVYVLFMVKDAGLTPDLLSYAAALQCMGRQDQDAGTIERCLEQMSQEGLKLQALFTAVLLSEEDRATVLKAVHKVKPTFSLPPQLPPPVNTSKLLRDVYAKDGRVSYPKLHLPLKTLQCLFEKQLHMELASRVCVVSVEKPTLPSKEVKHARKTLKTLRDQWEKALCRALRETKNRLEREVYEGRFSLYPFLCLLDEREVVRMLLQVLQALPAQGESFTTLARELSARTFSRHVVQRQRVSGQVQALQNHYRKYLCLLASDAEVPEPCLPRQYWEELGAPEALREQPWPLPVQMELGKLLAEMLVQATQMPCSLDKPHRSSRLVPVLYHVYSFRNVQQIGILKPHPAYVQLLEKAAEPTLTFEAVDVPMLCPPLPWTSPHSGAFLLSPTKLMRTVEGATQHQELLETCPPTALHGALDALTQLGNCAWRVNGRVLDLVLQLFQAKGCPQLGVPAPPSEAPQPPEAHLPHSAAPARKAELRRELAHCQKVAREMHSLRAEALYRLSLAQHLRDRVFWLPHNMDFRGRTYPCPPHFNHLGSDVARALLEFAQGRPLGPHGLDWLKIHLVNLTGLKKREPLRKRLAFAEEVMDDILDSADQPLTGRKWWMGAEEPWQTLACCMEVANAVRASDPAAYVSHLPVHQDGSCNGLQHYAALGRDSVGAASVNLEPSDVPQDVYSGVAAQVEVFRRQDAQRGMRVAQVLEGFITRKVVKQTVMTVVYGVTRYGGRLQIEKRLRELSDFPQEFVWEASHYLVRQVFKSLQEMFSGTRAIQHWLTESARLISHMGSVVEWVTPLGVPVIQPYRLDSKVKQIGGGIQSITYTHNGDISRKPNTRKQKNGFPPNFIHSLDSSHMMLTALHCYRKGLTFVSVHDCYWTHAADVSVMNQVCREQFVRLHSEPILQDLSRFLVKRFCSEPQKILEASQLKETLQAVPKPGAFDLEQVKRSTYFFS

| SMILES | IC50 [µM] |
| --- | --- |
| Cc1ccccc1-c1cc(=O)oc2nc(N3CCOCC3C)ccc12 (single isomer, unassigned) [Example 15, 7-(3-methylmorpholino)-4-(o-tolyl)-2H-pyrano[2,3-b]pyridin-2-one] | 2 |
| Cc1ccccc1-c1cc(=O)oc2nc(N3CCC(C(N)=O)C3)ccc12 (single isomer, unassigned) [Example 29, 1-(2-oxo-4-(o-tolyl)-2H-pyrano[2,3-b]pyridin-7-yl)pyrrolidine-3-carboxamide] | 7 |
| CC(=O)NC1CCN(c2ccc3c(-c4ccccc4C)cc(=O)oc3n2)C1 (stereo not shown) [Example 22, N-(1-(2-oxo-4-(o-tolyl)-2H-pyrano[2,3-b]pyridin-7-yl)pyrrolidin-3-yl)acetamide] | 3 |
| COC1CN(c2ccc3c(-c4ccccc4C)cc(=O)oc3n2)C1 [Example 20, 7-(3-methoxyazetidin-1-yl)-4-(o-tolyl)-2H-pyrano[2,3-b]pyridin-2-one] | 2 |
| Cc1ccccc1-c1cc(=O)oc2nc(N3CC4(COC4)C3)ccc12 [Example 10, 7-(2-oxa-6-azaspiro[3.3]heptan-6-yl)-4-(o-tolyl)-2H-pyrano[2,3-b]pyridin-2-one] | 86 |
| Cc1ccccc1-c1cc(=O)oc2nc(N3CCCC3C(=O)O)ccc12 (single isomer, unassigned) [Example 38, 1-(2-oxo-4-(o-tolyl)-2H-pyrano[2,3-b]pyridin-7-yl)pyrrolidine-2-carboxylic acid] | 1 |
| COCCN(C)c1ccc2c(-c3ccccc3C)cc(=O)oc2n1 [Example 04, 7-((2-methoxyethyl)(methyl)amino)-4-(o-tolyl)-2H-pyrano[2,3-b]pyridin-2-one] | 2 |
| Cc1ccccc1-c1cc(=O)oc2nc(N3CCC(C(=O)O)C3)ccc12 (single isomer, unassigned) [Example 33, 1-(2-oxo-4-(o-tolyl)-2H-pyrano[2,3-b]pyridin-7-yl)pyrrolidine-3-carboxylic acid] | 7 |
| Cc1ccccc1-c1cc(=O)oc2nc(N3CCC(C)(O)C3)ccc12 (single isomer, unassigned) [Example 27, 7-(3-hydroxy-3-methylpyrrolidin-1-yl)-4-(o-tolyl)-2H-pyrano[2,3-b]pyridin-2-one] | 1 |
| Cc1cccc(C)c1-c1cc(=O)oc2nc(N3CCC[C@@H]3C(=O)O)ccc12 [Example 51, (4-(2,6-dimethylphenyl)-2-oxo-2H-pyrano[2,3-b]pyridin-7-yl)-D-proline] | 0.1 |
| CNC(=O)CN(C)c1ccc2c(-c3ccc(F)cc3Cl)cc(=O)oc2n1 [Example 45, 2-((4-(2-chloro-4-fluorophenyl)-2-oxo-2H-pyrano[2,3-b]pyridin-7-yl)(methyl)amino)-N-methylacetamide] | 1 |
| Cc1ccccc1-c1cc(=O)oc2nc(N3CCC(C)(O)C3)ccc12 (single isomer, unassigned) [Example 28, 7-(3-hydroxy-3-methylpyrrolidin-1-yl)-4-(o-tolyl)-2H-pyrano[2,3-b]pyridin-2-one] | 1 |
| Cc1ccccc1-c1cc(=O)oc2nc(N3CCC(C(=O)O)C3)ccc12 (single isomer, unassigned) [Example 34, 1-(2-oxo-4-(o-tolyl)-2H-pyrano[2,3-b]pyridin-7-yl)pyrrolidine-3-carboxylic acid] | 20 |
| Cc1ccccc1-c1cc(=O)oc2nc(N3CCC3)ccc12 [Example 19, 7-(azetidin-1-yl)-4-(o-tolyl)-2H-pyrano[2,3-b]pyridin-2-one] | 0.3 |
| Cc1ccccc1-c1cc(=O)oc2nc(N3CCN(C)C(=O)C3)ccc12 [Example 11, 7-(4-methyl-3-oxopiperazin-1-yl)-4-(o-tolyl)-2H-pyrano[2,3-b]pyridin-2-one] | 47 |
| COC1CCN(c2ccc3c(-c4ccc(F)cc4Cl)cc(=O)oc3n2)C1 (single isomer, unassigned) [Example 25, 4-(2-chloro-4-fluorophenyl)-7-(3-methoxypyrrolidin-1-yl)-2H-pyrano[2,3-b]pyridin-2-one] | 1 |

| SMILES | IC50 [µM] |
| --- | --- |
| Cc1ccccc1-c1cc(=O)oc2nc(N3CCC(F)C3)ccc12 (stereo not shown) [Example 18, 7-(3-fluoropyrrolidin-1-yl)-4-(o-tolyl)-2H-pyrano[2,3-b]pyridin-2-one] | 1 |
| Cc1ccccc1-c1cc(=O)oc2nc(N3CCC(C(N)=O)C3)ccc12 (single isomer, unassigned) [Example 30, 1-(2-oxo-4-(o-tolyl)-2H-pyrano[2,3-b]pyridin-7-yl)pyrrolidine-3-carboxamide] | 0.9 |
| Cc1ccccc1-c1cc(=O)oc2nc(N3CCOCC3C)ccc12 (single isomer, unassigned) [Example 14, 7-(3-methylmorpholino)-4-(o-tolyl)-2H-pyrano[2,3-b]pyridin-2-one] | 0.4 |
| Cc1ccccc1-c1cc(=O)oc2nc(N(C)C(C)C(N)=O)ccc12 (single isomer, unassigned) [Example 49, 2-(methyl(2-oxo-4-(o-tolyl)-2H-pyrano[2,3-b]pyridin-7-yl)amino)propanamide] | 1 |
| COC1CCN(c2ccc3c(-c4ccccc4C)cc(=O)oc3n2)C1 (single isomer, unassigned) [Example 24, 7-(3-methoxypyrrolidin-1-yl)-4-(o-tolyl)-2H-pyrano[2,3-b]pyridin-2-one] | 3 |
| Cc1ccccc1-c1cc(=O)oc2nc(N3CCC(C)(O)C3)ccc12 (racemic) [Example 13, 7-(3-hydroxy-3-methylpyrrolidin-1-yl)-4-(o-tolyl)-2H-pyrano[2,3-b]pyridin-2-one] | 0.3 |
| CC(=O)N1CCN(c2ccc3c(-c4ccccc4C)cc(=O)oc3n2)CC1 [Example 06, 7-(4-acetylpiperazin-1-yl)-4-(o-tolyl)-2H-pyrano[2,3-b]pyridin-2-one] | > 100 |
| CNC(=O)CN(C)c1ccc2c(-c3ccccc3C)cc(=O)oc2n1 [Example 39, N-methyl-2-[methyl-[4-(o-tolyl)-2-oxo-pyrano[2,3-b]pyridin-7-yl]amino]acetamide] | 1 |
| Cc1ccccc1-c1cc(=O)oc2nc(N3CCCC3C(=O)O)ccc12 (single isomer, unassigned) [Example 37, 1-(2-oxo-4-(o-tolyl)-2H-pyrano[2,3-b]pyridin-7-yl)pyrrolidine-2-carboxylic acid] | 0.2 |
| Cc1cccc(C)c1-c1cc(=O)oc2nc(N3CCC[C@H]3C(=O)O)ccc12 [Example 50, (4-(2,6-dimethylphenyl)-2-oxo-2H-pyrano[2,3-b]pyridin-7-yl)-L-proline] | 0.4 |
| CNC(=O)CCN(C)c1ccc2c(-c3ccccc3C)cc(=O)oc2n1 [Example 43] | 7 |
| O=c1cc(-c2ccc(F)cc2Cl)c2ccc(N3CCOCC3)nc2o1 [Example 21, 4-(2-chloro-4-fluorophenyl)-7-morpholino-2H-pyrano[2,3-b]pyridin-2-one] | 3 |
| Cc1ccccc1-c1cc(=O)oc2nc(N3CCC(F)(F)C3)ccc12 [Example 17, 7-(3,3-difluoropyrrolidin-1-yl)-4-(o-tolyl)-2H-pyrano[2,3-b]pyridin-2-one] | 0.6 |
| Cc1ccccc1-c1cc(=O)oc2nc(N(C)CCC(N)=O)ccc12 [Example 42] | 3 |
| Cc1ccccc1-c1cc(=O)oc2nc(N3CCC(C(N)=O)C3)ccc12 (racemic) [Example 16, 1-(2-oxo-4-(o-tolyl)-2H-pyrano[2,3-b]pyridin-7-yl)pyrrolidine-3-carboxamide] | 2 |
